Test results reported in patent US9096593B2, “Compounds and methods for kinase modulation, and indications therefor” (Plexxikon Inc., priority 2009, dated 2015).
Like-named read-outs stand apart in the source and are kept apart here.

Experiments:
[1] = target: Fms kinase (Homo sapiens (Human), UniProt P07333); assay: Fms kinase biochemical activity assay (AlphaScreen, biotin-(E4Y)10 phosphorylation)
Summary of the method: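 Recombinant human Fms phosphorylating 30 nM biotin-(E4Y)10 with 100 μM ATP (1 ng/well enzyme) in Hepes pH 7.5 buffer with Mg2+/Mn2+, 5% DMSO, 20 min at 30 °C. Phosphotyrosine detected by AlphaScreen streptavidin donor/PY20 acceptor beads; IC50 from signal versus compound concentration.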

[2] = target: BCR-KIT/BaF3 cells (Homo sapiens, UniProt P10721); assay: BCR-KIT/BaF3 cell proliferation assay (ATPlite); assay type: cell-based; conditions: read-out: BCR/BaF3 (IC50 μM) Kit
Sequence of BCR-KIT/BaF3 cells (P10721 26-976 limits assumed, change not shown): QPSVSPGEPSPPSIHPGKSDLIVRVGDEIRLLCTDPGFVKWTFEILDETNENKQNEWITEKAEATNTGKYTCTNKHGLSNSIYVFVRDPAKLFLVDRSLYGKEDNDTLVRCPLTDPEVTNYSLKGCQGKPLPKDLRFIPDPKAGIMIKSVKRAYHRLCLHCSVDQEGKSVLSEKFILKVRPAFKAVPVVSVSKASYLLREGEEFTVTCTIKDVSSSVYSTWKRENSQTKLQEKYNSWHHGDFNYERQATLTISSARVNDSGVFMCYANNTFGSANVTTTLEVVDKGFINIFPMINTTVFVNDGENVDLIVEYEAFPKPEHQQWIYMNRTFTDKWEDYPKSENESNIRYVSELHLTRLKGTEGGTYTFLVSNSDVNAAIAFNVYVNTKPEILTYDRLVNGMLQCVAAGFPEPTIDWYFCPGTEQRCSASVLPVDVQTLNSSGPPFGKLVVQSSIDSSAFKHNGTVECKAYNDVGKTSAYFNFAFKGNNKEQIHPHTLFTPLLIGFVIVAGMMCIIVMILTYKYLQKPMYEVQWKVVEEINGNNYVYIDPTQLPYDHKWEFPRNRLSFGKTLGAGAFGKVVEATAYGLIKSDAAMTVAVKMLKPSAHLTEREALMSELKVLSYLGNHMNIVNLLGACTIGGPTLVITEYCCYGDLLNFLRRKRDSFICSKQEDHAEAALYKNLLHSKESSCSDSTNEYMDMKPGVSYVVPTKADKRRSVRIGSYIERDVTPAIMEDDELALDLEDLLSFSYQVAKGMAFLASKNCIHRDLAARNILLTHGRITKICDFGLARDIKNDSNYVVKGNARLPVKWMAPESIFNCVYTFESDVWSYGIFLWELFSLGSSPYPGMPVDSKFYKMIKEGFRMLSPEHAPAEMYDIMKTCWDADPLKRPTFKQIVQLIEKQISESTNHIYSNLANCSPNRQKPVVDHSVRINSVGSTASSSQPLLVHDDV
Summary of the method: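 BCR-KIT/BaF3 cells plated at 10,000/well in G418-containing medium without IL-3/WEHI; MV-4-11 at 25,000/well in medium with 10% FBS. Compound given as 8-point 1:3 titration, top 10 μM final, 3 days at 37 °C. Viability read as ATPlite luminescence; IC50 from concentration curve.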

[3] = read-out: Biochemical activity (IC50 μM) Fms
[4] = 100 μM ATP, read-out: Biochemical (IC50 μM) Fms

Sequence of Fms kinase (P07333 20-972): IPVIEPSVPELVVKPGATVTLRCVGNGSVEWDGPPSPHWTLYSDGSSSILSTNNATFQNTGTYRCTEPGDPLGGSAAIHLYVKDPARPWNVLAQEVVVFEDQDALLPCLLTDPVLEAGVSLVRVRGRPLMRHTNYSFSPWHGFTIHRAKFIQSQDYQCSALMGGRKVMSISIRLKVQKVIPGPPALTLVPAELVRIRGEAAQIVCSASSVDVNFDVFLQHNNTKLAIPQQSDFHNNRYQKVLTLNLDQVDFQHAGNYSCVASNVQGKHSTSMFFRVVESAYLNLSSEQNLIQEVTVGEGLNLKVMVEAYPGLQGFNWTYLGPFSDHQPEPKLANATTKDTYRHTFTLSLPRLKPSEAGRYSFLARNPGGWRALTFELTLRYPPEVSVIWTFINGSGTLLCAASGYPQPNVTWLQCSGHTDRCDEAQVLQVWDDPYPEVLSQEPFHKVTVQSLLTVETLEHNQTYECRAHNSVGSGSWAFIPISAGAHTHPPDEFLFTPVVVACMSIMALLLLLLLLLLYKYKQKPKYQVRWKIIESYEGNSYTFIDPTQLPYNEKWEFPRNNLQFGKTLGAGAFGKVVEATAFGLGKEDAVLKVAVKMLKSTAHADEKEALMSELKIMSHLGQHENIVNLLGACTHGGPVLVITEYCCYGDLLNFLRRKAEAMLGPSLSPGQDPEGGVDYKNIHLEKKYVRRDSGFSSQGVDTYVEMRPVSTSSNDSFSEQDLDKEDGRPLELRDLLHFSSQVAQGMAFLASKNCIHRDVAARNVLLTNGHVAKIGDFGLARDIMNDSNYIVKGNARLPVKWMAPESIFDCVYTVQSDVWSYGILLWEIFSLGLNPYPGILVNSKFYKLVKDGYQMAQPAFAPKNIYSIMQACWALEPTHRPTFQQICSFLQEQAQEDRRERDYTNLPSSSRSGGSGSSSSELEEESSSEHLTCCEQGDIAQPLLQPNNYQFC

In the case of `Fc1cc(Cc2c[nH]c3ncc(Cl)cc23)cnc1NCc1ccc(C(F)(F)F)nc1` [Compound P-2172, [5-(5-Chloro-1H-pyrrolo[2,3-b]pyridin-3-ylmethyl)-3-fluoro-pyridin-2-yl]-(6-trifluoromethyl-pyridin-3-ylmethyl)-amine], the “Biochemical activity selectivity (Kit IC50/Fms IC50)” value [1] is reported as less than 20, the IC50 [1, 3] is reported as less than 0.1 µM and the IC50 [2] is reported as less than 0.1 µM.

With `COc1cnc2[nH]cc(Cc3ccc(NCc4ccc(OC)nc4)nc3F)c2c1` [Compound P-2030, [6-Fluoro-5-(5-methoxy-1H-pyrrolo[2,3-b]pyridin-3-ylmethyl)-pyridin-2-yl]-(6-methoxy-pyridin-3-ylmethyl)-amine] the IC50 [1, 4] was less than 0.1 µM, the “Biochemical activity selectivity (Kit IC50/Fms IC50)” value [1] was less than 20 and the IC50 [1, 3] was less than 0.1 µM. It also gave an IC50 [2] greater than 0.1 µM.

With `COc1ccc(CNc2ccc(Cc3c[nH]c4ncc(C)cc34)c(F)n2)c(OC)n1` [Compound P-2097, (2,6-Dimethoxy-pyridin-3-ylmethyl)-[6-fluoro-5-(5-methyl-1H-pyrrolo[2,3-b]pyridin-3-ylmethyl)-pyridin-2-yl]-amine] the “Biochemical activity selectivity (Kit IC50/Fms IC50)” value [1] was greater than 20, the IC50 [1, 3] was less than 0.1 µM and the IC50 [2] was greater than 0.1 µM.

For `Cc1cnc2[nH]cc(Cc3ccc(NCc4cnccc4C(F)(F)F)nc3)c2c1` [Compound P-2070, [5-(5-Methyl-1H-pyrrolo[2,3-b]pyridin-3-ylmethyl)-pyridin-2-yl]-(4-trifluoromethyl-pyridin-3-ylmethyl)-amine], the “Biochemical activity selectivity (Kit IC50/Fms IC50)” value [1] was less than 20, the IC50 [1, 3] was less than 0.1 µM and the IC50 [2] was greater than 0.1 µM.

In the case of `COc1ccc(CNc2ncc(Cc3c[nH]c4ncc(C)cc34)cn2)cn1` [Compound P-2057, (6-Methoxy-pyridin-3-ylmethyl)-[5-(5-methyl-1H-pyrrolo[2,3-b]pyridin-3-ylmethyl)-pyrimidin-2-yl]-amine], the IC50 [1, 4] is reported as less than 0.1 µM, the “Biochemical activity selectivity (Kit IC50/Fms IC50)” value [1] is reported as less than 20 and the IC50 [1, 3] is reported as less than 0.1 µM. It also gave an IC50 [2] greater than 0.1 µM.

For `COc1cnc2[nH]cc(Cc3ccc(NCc4cncc(F)c4)nc3F)c2c1` [Compound P-2028, [6-Fluoro-5-(5-methoxy-1H-pyrrolo[2,3-b]pyridin-3-ylmethyl)-pyridin-2-yl]-(5-fluoro-pyridin-3-ylmethyl)-amine], the “Biochemical activity selectivity (Kit IC50/Fms IC50)” value [1] was greater than 20, the IC50 [1, 3] was less than 0.1 µM and the IC50 [2] was greater than 0.1 µM.

For `COc1cccc(CNc2ncc(Cc3c[nH]c4ncc(Cl)cc34)s2)n1` [Compound P-2163, [5-(5-Chloro-1H-pyrrolo[2,3-b]pyridin-3-ylmethyl)-thiazol-2-yl]-(6-methoxy-pyridin-2-ylmethyl)-amine], the “Biochemical activity selectivity (Kit IC50/Fms IC50)” value [1] was less than 20, the IC50 [1, 3] was less than 0.1 µM and the IC50 [2] was greater than 0.1 µM.

With `Cc1cnc2[nH]cc(Cc3cnc(NCc4cccnc4OC4CCCC4)nc3)c2c1` [Compound P-2148, (2-Cyclopentyloxy-pyridin-3-ylmethyl)-[5-(5-methyl-1H-pyrrolo[2,3-b]pyridin-3-ylmethyl)-pyrimidin-2-yl]-amine] the “Biochemical activity selectivity (Kit IC50/Fms IC50)” value [1] was less than 20, the IC50 [1, 3] was less than 0.1 µM and the IC50 [2] was greater than 0.1 µM.

For `COc1ccc(CNc2ccc(Cc3c[nH]c4ncc(F)cc34)c(F)n2)cn1` [Compound P-1622, [6-Fluoro-5-(5-fluoro-1H-pyrrolo[2,3-b]pyridin-3-ylmethyl)-pyridin-2-yl]-(6-methoxy-pyridin-3-ylmethyl)-amine], the “Biochemical activity selectivity (Kit IC50/Fms IC50)” value [1] was greater than 20, the IC50 [1, 3] was less than 0.1 µM and the IC50 [2] was greater than 0.1 µM.

With `CS(=O)(=O)Nc1cnc2[nH]cc(Cc3ccc(NCc4ccc(Cl)nc4)nc3F)c2c1` [Compound P-1679, N-(3-{6-[(6-Chloro-pyridin-3-ylmethyl)-amino]-2-fluoro-pyridin-3-ylmethyl}-1H-pyrrolo[2,3-b]pyridin-5-yl)-methanesulfonamide] the “Biochemical activity selectivity (Kit IC50/Fms IC50)” value [1] was greater than 20, the IC50 [1, 3] was less than 0.1 µM and the IC50 [2] was greater than 0.1 µM.

For `Cc1cccc(CNc2ncc(Cc3c[nH]c4ncc(Cl)cc34)cn2)c1` [Compound P-2013, [5-(5-Chloro-1H-pyrrolo[2,3-b]pyridin-3-ylmethyl)-pyrimidin-2-yl]-(3-methyl-benzyl)-amine], the “Biochemical activity selectivity (Kit IC50/Fms IC50)” value [1] was less than 20, the IC50 [1, 3] was less than 0.1 µM and the IC50 [2] was greater than 0.1 µM.

With `Cc1cnc2[nH]cc(Cc3ccc(NCc4cccnc4F)nc3F)c2c1` [Compound P-2103, [6-Fluoro-5-(5-methyl-1H-pyrrolo[2,3-b]pyridin-3-ylmethyl)-pyridin-2-yl]-(2-fluoro-pyridin-3-ylmethyl)-amine] the “Biochemical activity selectivity (Kit IC50/Fms IC50)” value [1] was greater than 20, the IC50 [1, 3] was less than 0.1 µM and the IC50 [2] was greater than 0.1 µM.

For `FC(F)(F)c1ccncc1CNc1ccc(Cc2c[nH]c3ncc(Cl)cc23)cn1` [Compound P-2063, [5-(5-Chloro-1H-pyrrolo[2,3-b]pyridin-3-ylmethyl)-pyridin-2-yl]-(4-trifluoromethyl-pyridin-3-ylmethyl)-amine], the “Biochemical activity selectivity (Kit IC50/Fms IC50)” value [1] was less than 20, the IC50 [1, 3] was less than 0.1 µM and the IC50 [2] was greater than 0.1 µM.

With `Cc1cnc2[nH]cc(Cc3ccc(NCc4ccc(Cl)nc4)nc3F)c2c1` [Compound P-2088, (6-Chloro-pyridin-3-ylmethyl)-[6-fluoro-5-(5-methyl-1H-pyrrolo[2,3-b]pyridin-3-ylmethyl)-pyridin-2-yl]-amine] the “Biochemical activity selectivity (Kit IC50/Fms IC50)” value [1] was greater than 20, the IC50 [1, 3] was less than 0.1 µM and the IC50 [2] was greater than 0.1 µM.

With `COc1cnc2[nH]cc(Cc3ccc(NCc4cccnc4OC)nc3F)c2c1` [Compound P-2043, [6-Fluoro-5-(5-methoxy-1H-pyrrolo[2,3-b]pyridin-3-ylmethyl)-pyridin-2-yl]-(2-methoxy-pyridin-3-ylmethyl)-amine] the “Biochemical activity selectivity (Kit IC50/Fms IC50)” value [1] was greater than 20 and the IC50 [2] was greater than 0.1 µM.

With `Cc1cnc2[nH]cc(Cc3ccc(NCc4ccnc(F)c4)nc3F)c2c1` [Compound P-2118, [6-Fluoro-5-(5-methyl-1H-pyrrolo[2,3-b]pyridin-3-ylmethyl)-pyridin-2-yl]-(2-fluoro-pyridin-4-ylmethyl)-amine] the “Biochemical activity selectivity (Kit IC50/Fms IC50)” value [1] was greater than 20, the IC50 [1, 3] was less than 0.1 µM and the IC50 [2] was greater than 0.1 µM.

In the case of `COc1cnc2[nH]cc(Cc3cnc(NCc4ccc(C(F)(F)F)nc4)c(F)c3)c2c1` [Compound P-2147, [3-Fluoro-5-(5-methoxy-1H-pyrrolo[2,3-b]pyridin-3-ylmethyl)-pyridin-2-yl]-(6-trifluoromethyl-pyridin-3-ylmethyl)-amine], the “Biochemical activity selectivity (Kit IC50/Fms IC50)” value [1] is reported as less than 20, the IC50 [1, 3] is reported as less than 0.1 µM and the IC50 [2] is reported as less than 0.1 µM.

For `COc1ncc(CNc2ccc(Cc3c[nH]c4ncc(Cl)cc34)c(F)n2)cc1F` [Compound P-2165, [5-(5-Chloro-1H-pyrrolo[2,3-b]pyridin-3-ylmethyl)-6-fluoro-pyridin-2-yl]-(5-fluoro-6-methoxy-pyridin-3-ylmethyl)-amine], the IC50 [1, 4] was less than 0.1 µM, the “Biochemical activity selectivity (Kit IC50/Fms IC50)” value [1] was greater than 20 and the IC50 [1, 3] was less than 0.1 µM. The IC50 [2] was greater than 0.1 µM.

With `COc1ccnc2[nH]cc(Cc3ccc(NCc4ccc(Cl)cc4)nc3F)c12` [Compound P-2037, (4-Chloro-benzyl)-[6-fluoro-5-(4-methoxy-1H-pyrrolo[2,3-b]pyridin-3-ylmethyl)-pyridin-2-yl]-amine] the IC50 [1, 4] was less than 0.1 µM, the “Biochemical activity selectivity (Kit IC50/Fms IC50)” value [1] was less than 20 and the IC50 [1, 3] was less than 0.1 µM. It also gave an IC50 [2] greater than 0.1 µM.

In the case of `Fc1ccc(CNc2ccc(Cc3c[nH]c4ncc(Cl)cc34)cn2)cn1` [Compound P-2004, [5-(5-chloro-1H-pyrrolo[2,3-b]pyridin-3-ylmethyl)-pyridin-2-yl]-(6-fluoro-pyridin-3-ylmethyl)-amine], the IC50 [1, 4] is reported as less than 0.1 µM, the “Biochemical activity selectivity (Kit IC50/Fms IC50)” value [1] is reported as less than 20 and the IC50 [1, 3] is reported as less than 0.1 µM. The IC50 [2] was less than 0.1 µM.

For `Cc1cnc2[nH]cc(Cc3cnc(NCc4cccc(C)n4)nc3)c2c1` [Compound P-2079, (6-Methyl-pyridin-2-ylmethyl)-[5-(5-methyl-1H-pyrrolo[2,3-b]pyridin-3-ylmethyl)-pyrimidin-2-yl]-amine], the “Biochemical activity selectivity (Kit IC50/Fms IC50)” value [1] was less than 20, the IC50 [1, 3] was less than 0.1 µM and the IC50 [2] was greater than 0.1 µM.

With `Clc1cnc2[nH]cc(Cc3ccc(NCc4ccc(Cl)nc4)nc3)c2c1` [Compound P-2003] the IC50 [1, 4] was less than 0.1 µM, the “Biochemical activity selectivity (Kit IC50/Fms IC50)” value [1] was less than 20 and the IC50 [1, 3] was less than 0.1 µM. It also gave an IC50 [2] of less than 0.1 µM.

In the case of `COc1ncccc1CNc1ncc(Cc2c[nH]c3ncc(C)cc23)cn1` [Compound P-2139, (2-Methoxy-pyridin-3-ylmethyl)-[5-(5-methyl-1H-pyrrolo[2,3-b]pyridin-3-ylmethyl)-pyrimidin-2-yl]-amine], the “Biochemical activity selectivity (Kit IC50/Fms IC50)” value [1] is reported as greater than 20, the IC50 [1, 3] is reported as less than 0.1 µM and the IC50 [2] is reported as greater than 0.1 µM.

`COc1ncc(F)cc1CNc1ncc(Cc2c[nH]c3ncc(C)cc23)cn1` [Compound P-2061, (5-Fluoro-2-methoxy-pyridin-3-ylmethyl)-[5-(5-methyl-1H-pyrrolo[2,3-b]pyridin-3-ylmethyl)-pyrimidin-2-yl]-amine] was tested, and the “Biochemical activity selectivity (Kit IC50/Fms IC50)” value [1] was greater than 20, the IC50 [1, 3] was less than 0.1 µM and the IC50 [2] was greater than 0.1 µM.

In the case of `Fc1ccc(CNc2ncc(Cc3c[nH]c4ncc(Cl)cc34)cn2)cc1F` [Compound P-2008, [5-(5-Chloro-1H-pyrrolo[2,3-b]pyridin-3-ylmethyl)-pyrimidin-2-yl]-(3,4-difluoro-benzyl)-amine], the “Biochemical activity selectivity (Kit IC50/Fms IC50)” value [1] is reported as less than 20, the IC50 [1, 3] is reported as less than 0.1 µM and the IC50 [2] is reported as greater than 0.1 µM.

In the case of `COc1cnc2[nH]cc(Cc3ccc(NCc4ccc(Cl)cc4)nc3F)c2c1` [Compound P-2032, (4-Chloro-benzyl)-[6-fluoro-5-(5-methoxy-1H-pyrrolo[2,3-b]pyridin-3-ylmethyl)-pyridin-2-yl]-amine], the IC50 [1, 4] is reported as less than 0.1 µM, the “Biochemical activity selectivity (Kit IC50/Fms IC50)” value [1] is reported as less than 20 and the IC50 [1, 3] is reported as less than 0.1 µM. It also gave an IC50 [2] of less than 0.1 µM.
